Legend:
Format in all cases: in vivo
[1] = tested on: Cowpea aphid (Aphis craccivora); assay: B.3 Cowpea aphid leaf disk test; details: foliar, 120 h
Procedure: If not otherwise specified, the test solutions are prepared as follows:
The active compound is dissolved at the desired concentration in a mixture of 1:1 (vol:vol) distilled water: acetone. The test solution is prepared at the day of use.
B.3 Cowpea aphid (Aphis craccivora):
For evaluating control of Cowpea aphid through contact or systemic means the test unit consists of 24-well-microtiter plates containing broad bean leaf disks.
The compounds are formulated using a solution containing 75% v/v water and 25% v/v DMSO. Different concentrations of formulated compounds are sprayed onto the leaf disks at 2.5 μl, using a custom built micro atomizer, at two replications.
After application, the leaf disks are air-dried and 5-8 adult aphids placed on the leaf disks inside the microtiter plate wells. The aphids are then allowed to suck on the treated leaf disks and incubated at about 23±1° C. and about 50±5% relative humidity for 5 days. Aphid mortality and fecundity is then visually assessed.

[2] = tested on: Rice green leafhopper (Nephotettix virescens); assay: B.1 Rice green leafhopper, sprayed rice seedlings; details: 72 h
Procedure: B.1 Rice Green Leafhopper (Nephotettix virescens):
Rice seedlings are cleaned and washed 24 hours before spraying. The active compounds are formulated in 50:50 acetone:water (vol:vol), and 0.1% vol/vol surfactant (EL 620) is added. Potted rice seedlings are sprayed with 5 ml test solution, air dried, placed in cages and inoculated with 10 adults. Treated rice plants are kept at about 28-29° C. and relative humidity of about 50-60%. Percent mortality is recorded after 72 hours.

[3] = tested on: Thrips (Dichromothrips corbetti); assay: B.4 Thrips floral-immersion test; details: 72 h
Procedure: B.4 Thrips (Dichromothrips Corbetti):
Dichromothrips corbetti adults used for bioassay are obtained from a colony maintained continuously under laboratory conditions. For testing purposes, the test compound is diluted in a 1:1 mixture of acetone:water (vol:vol), plus 0.01% vol/vol Alkamuls® EL 620 surfactant.
Thrips potency of each compound is evaluated by using a floral-immersion technique. Plastic petri dishes are used as test arenas. All petals of individual, intact orchid flowers are dipped into treatment solution and allowed to dry. Treated flowers are placed into individual petri dishes along with about 20 adult thrips. The petri dishes v then covered with lids. All test arenas are held under continuous light and a temperature of about 28° C. for duration of the assay. After 3 days, the numbers of live thrips are counted on each flower, and along inner walls of each petri dish. The percent mortality is recorded 72 hours after treatment.

[4] = tested on: Chilo suppressalis; assay: B.3a Rice stem borer vial bioassay; details: 72 h
Procedure: Field-collected rice straws were washed with tap water and cut for a certain of length. Straws were air dried before placing individually in vials (=replicate, 3×). About 125 μl test solution was sprayed per vial. Treated rice straws in vials were air dried under the laboratory hood. After air-drying, each straw was inoculated with 10 newly-emerged (0-day old) stem borer larvae. Vials were then covered. Set-up was kept in a holding room maintained at 27° C. and 65% RH for three days. At 3 days after inoculation, rice straws were manually dissected for larval mortality assessment. The data (Table C) show activity against two species of rice stem borers.

[5] = tested on: Greenhouse Whitefly (Trialeurodes vaporariorum); assay: Greenhouse Whitefly, egg plant leaf disk (table 5, mixtures); details: solo application I-R-1, use rate 2 ppm
Procedure: For evaluating control of Greenhouse Whitefly (Trialeurodes vaporariorum) the test unit consisted of 96-well-microtiter plates containing a leaf disk of egg plant leaf disk with white fly eggs. The compounds or mixtures were formulated using a solution containing 75% water and 25% DMSO. Concentrations of formulated compounds or mixtures were sprayed onto the […] at 2.5 μl, using a custom built micro atomizer, at two replications.
(§1) For experimental mixtures in these tests identical volumes of both mixing partners at the desired concentrations respectively, were mixed together.
After application, microtiter plates were incubated at 23±1° C., 65±5% RH for 6 days. Mortality of hatched crawlers was then visually assessed.

[6] = tested on: brown planthopper (Nilaparvata lugens); assay: Test 6 brown planthopper, foliar spray (mixtures); details: solo application I-R-1, use rate 5 ppm
Procedure: For evaluating control of brown planthopper (Nilaparvata lugens) by foliar spray method. Clean potted rice seedlings with upper leaf portion cut are properly labeled. Placed three potted rice plants per treatment concentration/combination on top of the rotating disc (270 mm) and sprayed with the 12 mL spray solution. Treated plants are allowed to air-dry in the laboratory for about an hour. After air-drying, covered each treated rice plant. Each treated plant was infested with brown planthoppers using a suction vacuum. Plants are maintained at 27° C.±1° C., 50±5% RH and 24 hours light conditions in a holding room. Percent mortality is recorded 7 days after infestation by counting both the dead and alive brown planthoppers on the plants and on the water.

[7] = tested on: vetch aphid (Megoura viciae); assay: Test 7 vetch aphid, leaf disks (mixtures)
Procedure: For evaluating control of vetch aphid (Megoura viciae) through contact or systemic means the test unit consisted of 24-well-microtiter plates containing broad bean leaf disks.
The compounds or mixtures were formulated using a solution containing 75% water and 25% DMSO. Concentrations of formulated compounds or mixtures were sprayed onto the leaf disks at 2.5 μl, using a custom built micro atomizer, at two replications.
as §1
After application, the leaf disks were air-dried and 5-8 adult aphids placed on the leaf disks inside the microtiter plate wells. The aphids were then allowed to suck on the treated leaf disks and incubated at 23±1° C., 50±5% RH for 5 days. Aphid mortality and fecundity was then visually assessed.

[8] = tested on: boll weevil (Anthonomus grandis); assay: Test 9 boll weevil, insect diet with eggs (mixtures)
Procedure: For evaluating control of boll weevil (Anthonomus grandis) the test unit consisted of 24-well-microtiter plates containing an insect diet and 20-30 A. grandis eggs.
The compounds or mixtures were formulated using a solution containing 75% water and 25% DMSO. Concentrations of formulated compounds or mixtures were sprayed onto the insect diet at 20 μl, using a custom built micro atomizer, at two replications.
as §1
After application, microtiter plates were incubated at 23±1° C., 50±5% RH for 5 days. Egg and larval mortality was then visually assessed.

[9] = tested on: tobacco budworm (Heliothis virescens); assay: Test 10 tobacco budworm, insect diet with eggs (mixtures)
Procedure: For evaluating control of tobacco budworm (Heliothis virescens) the test unit consisted of 96-well-microtiter plates containing an insect diet and 15-25 H. virescens eggs.
The compounds or mixtures were formulated using a solution containing 75% water and 25% DMSO. Different concentrations of formulated compounds or mixtures were sprayed onto the insect diet at 10 μl, using a custom built micro atomizer, at two replications.
as §1
After application, microtiter plates were incubated at 28±1° C., 80±5% RH for 5 days. Egg and larval mortality was then visually assessed.

Q: For `C[n+]1c([O-])c(-c2ccccc2)c(=O)n2c1SC[C@@H]2c1cnc(Cl)s1` [I-R-1, (3R)-3-(2-chlorothiazol-5-yl)-8-methyl-7-oxo-6-phenyl-2,3-dihydrothiazolo[3,2-a]pyrimidin-4-ium-5-olate], which mortality at 1 ppm [1] is on record?
A: Its mortality at 1 ppm is 90%.

Q: And the mortality at 1 ppm [2]?
A: Its mortality at 1 ppm is 100%.

Q: What about the mortality at 10 ppm [3] of the same compound?
A: Its mortality at 10 ppm is 100%.

Q: What about the mortality at 300 ppm [4] of the same compound?
A: The mortality at 300 ppm was 83%.

Q: And the Average control % [5]?
A: The Average control % was 0%.

Q: And the Average control % ([6]; Table 6.1, after 7 days)?
A: The Average control % was 62%.

Q: And the Average control % ([6]; Table 6.2, after 7 days)?
A: Its Average control % is 62%.

Q: And the Average control % ([7]; Table 7.1, solo application I-R-1, use rate 2 ppm)?
A: Its Average control % is 25%.

Q: And the Average control % ([7]; Table 7.2, solo application I-R-1, use rate 2 ppm)?
A: Its Average control % is 25%.

Q: What about the Average control % ([8]; Table 9.1, solo application I-R-1, use rate 50 ppm) of the same compound?
A: Its Average control % is 25%.

Q: What about the Average control % ([8]; Table 9.2, solo application I-R-1, use rate 10 ppm) of the same compound?
A: The Average control % was 25%.

Q: What about the Average control % ([9]; Table 10.1, solo application I-R-1, use rate 10 ppm) of the same compound?
A: The Average control % was 0%.

Q: And the Average control % ([9]; Table 10.2, solo application I-R-1, use rate 10 ppm)?
A: The Average control % was 25%.
